Measurements from ChEMBL document CHEMBL1201862, “PubChem BioAssay data set” (2004).
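How tested: cells in 96-well plates exposed to compound for 48 hours at five concentrations. At the GI50, growth is halved.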 Activity calls are given as the source filed them. Rule as the data show it: active = GI50 up to about 1.1 µM and inactive = higher.

Experiments:
Experiment in all cases: DTP human tumour cell line panel, 48 h
786-0 = system: 786-0
A498 = system: A498
BT-549 = system: BT-549
EKVX = system: EKVX
HCC 2998 = system: HCC 2998
HL-60 = system: HL-60
LOX IMVI = system: LOX IMVI
LXFL 529 = system: LXFL 529
NCI-H226 = system: NCI-H226
NCI-H23 = system: NCI-H23
NCI-H460 = system: NCI-H460
NCI-H522 = system: NCI-H522
NCI/ADR-RES = system: NCI/ADR-RES
OVCAR-8 = system: OVCAR-8
SF-268 = system: SF-268
SK-MEL-5 = system: SK-MEL-5
SN12C = system: SN12C
SNB-19 = system: SNB-19
TK-10 = system: TK-10
UACC-257 = system: UACC-257

Measured: GI50

O=C(NC(=O)c1c(F)cccc1F)Nc1cccc(Oc2ncc(Cl)cn2)c1
inactive: 786-0 40 µM | A498 > 76.6 µM | BT-549 > 24.8 µM | EKVX > 100 µM | HCC 2998 4.73 µM | HL-60 3.51 µM | LOX IMVI 29.3 µM | LXFL 529 > 91 µM | NCI-H226 62.7 µM | NCI-H23 > 100 µM | NCI-H460 4.51 µM | NCI-H522 20.3 µM | NCI/ADR-RES > 23.3 µM | OVCAR-8 43 µM | SF-268 36.5 µM | SK-MEL-5 > 100 µM | SN12C 45.1 µM | SNB-19 45.5 µM | TK-10 > 100 µM | UACC-257 > 100 µM
